Laboratory results from US20060094668A1 (Wyeth, priority 2004, published 2006).
One block for each molecule: values may come before it.

Key:
[1] = clinical; conditions: human, in vivo
Description: Both study medications were always administered 1 hour after a medium-fat meal. Tigecycline was administered intravenously (IV) in […] sterile normal saline over 30 minutes for all doses.
At approximately 8 AM, each subject received 100 mg of tigecycline. […] At approximately 8 PM, each subject received 50 mg of tigecycline.
In addition, on days 16 through 18, each subject received 50 mg of tigecycline every 12 hours (at approximately 8 AM and 8 PM).
All samples were collected from an indwelling catheter or by direct venipuncture into blood collection tubes containing ethylenediaminetetraacetic acid.
The Cmax and tmax values were taken directly from the observed data. The λz and t1/2 values were not estimable because blood samples were not collected during the terminal disposition phase.
Vss/F and MRT could not be calculated because λz could not be estimated.
(§1) Geometric least-squares (GLS) mean ratios of tigecycline PK parameters were computed, and their associated 90% confidence intervals (Cls) calculated based on least squares means and the mean square error obtained from the 2-way ANOVA. […] The SAS statistical software package was used for all statistical analyses.

[2] = Urinary digoxin pharmacokinetics (Ae, CLr), digoxin alone vs with tigecycline; conditions: N = 20; for CL renal: human, urine and plasma, oral, 0.25 mg, CLr
From the text: In addition, a 24-hour urine collection (day 14 to day 15) for PK analysis was completed for each subject.
Subjects were required to void completely at the end of the predose period and at the end of each time interval after dose administration to ensure a complete interval collection.
Pharmacodynamic Assessments

[3] = clinical; conditions: human, in vivo; for AUC(0-t): AUC0-12 h; for Vd: Vss
Description: One (1) hour after a medium-fat meal, and after a predose 7-mL blood sample for a baseline tigecycline PK analysis, each subject received a single 100-mg dose of tigecycline.
Venous blood samples (7 mL each) for determination of tigecycline concentrations in serum were collected at the following times: on day 1, predose (within 2 hours before the start of the tigecycline infusion), and at 0.5 (end of infusion), 1, 1.5, 2, 3, 4, 6, 8,12,16, 24, 36, 48, 72, and 96 hours after tigecycline administration; and on day 19, predose, and at 0.5 (end of infusion), 1,1.5, 2, 3, 4, 6, 8, 12,16, 24, 36, 48, 72, and 96 hours after tigecycline administration.
Serum tigecycline samples were analyzed by a validated liquid chromatography/tandem mass spectroscopy (LC/MS/MS) method.
Tigecycline peak serum concentration (Cmax) and time to peak concentration (tmax) were reported from the observed data. Concentrations that were judged to be in the terminal phase were used to obtain the terminal-phase disposition rate constant (λz) by log-linear regression. The half-life (t1/2) was calculated as 0.693/λz. Tigecycline concentrations over the time period from hours 24 to 96 were used to estimate the t1/2.
Total AUC0-εr and AUMC were estimated as follows: AUC=(AUCt)+Ct/λz, and AUMC=(AUMCt)+tlast·Ct/λz+Ct/λz●2
The IV clearance (CL) was calculated and normalized by body weight (WT) as follows: CL=Dose/(AUC●WT). The apparent Vss was estimated by Vss=CL·MRT.
For this period of the study, the MRT was calculated as: MRT=(AUMC0-t+(t·Ctλz))/AUC0-t.
According to linear PK theory, (Gibaldi M, Perrier D. Pharmacokinetics. Marcel Dekker, Inc., 1982) the total AUC after a single dose (AUC0-∞) is equal to AUC over the dose interval τ at steady state (AUC0 τ).
For statistical comparisons, AUC, MRT, and Vss on day 1 (period 1) were based on concentrations normalized to the 50-mg tigecycline dose given during period 3.
as §1

[4] = assay type: in vivo, human
From the text: On each day before the start of study periods 1 and 2 (day-1 and day 6), all subjects underwent physical examinations, laboratory tests, vital sign assessments, and a standard 12-lead electrocardiogram (ECG), which included measurements of rhythm, heart rate, PR, QRS, QT, and QTc intervals. Adverse event monitoring was continuous, and blood samples for PK analysis was completed at the designated times throughout all study periods. Before dose administration on days 1, 7 and 15, 3 complete ECGs were performed for each subject, and the mean value used as the subject's baseline for each corresponding period.
Twelve (1 2)-lead ECGs were performed at screening, on day-1, on days 1, 7, 14, 15, and 19 within 2 hours before study drug administration, on days 2 through 6, 8 through 13, 16 through 18, 20, 21, and 22, and at the final evaluation at approximately 8 AM.
Descriptive statistics were obtained for all demographic characteristics, drug concentrations, PK parameters, and changes from baseline in ECG parameters. Analysis of variance (ANOVA) was performed on the natural logarithm-transformed PK parameters to evaluate treatment and subject effects. An analysis of the change from baseline in ECG parameters with and without multiple-dose tigecycline administration was conducted by using ANOVA, which included terms for subject and treatment effects. […]

[5] = literature case reports and studies; cited from earlier work

- concentration at 0 h [1]: 0.405 ng/mL
- concentration at 0.5 h [1]: 0.686 ng/mL
- concentration at 1 h [1]: 1.02 ng/mL
- concentration at 2 h [1]: 0.966 ng/mL
- concentration at 4 h [1]: 0.645 ng/mL
- concentration at 6 h [1]: 0.517 ng/mL
- concentration at 8 h [1]: 0.531 ng/mL
- concentration at 10 h [1]: 0.451 ng/mL
- concentration at 12 h [1]: 0.405 ng/mL
- concentration at 16 h [1]: 0.383 ng/mL
- concentration at 24 h [1]: 0.33 ng/mL
- effect on the AUC, CL, or MRT of tigecycline [3]: did not affect
Structure (SMILES): C[C@H]1O[C@@H](O[C@H]2[C@@H](O)C[C@H](O[C@H]3[C@@H](O)C[C@H](O[C@H]4CC[C@@]5(C)[C@H](CC[C@@H]6[C@@H]5C[C@@H](O)[C@]5(C)[C@@H](C7=CC(=O)OC7)CC[C@]65O)C4)O[C@@H]3C)O[C@@H]2C)C[C@H](O)[C@@H]1O [Digoxin]
- Ae, urinary digoxin, Geo. Mean [2]: 40.3%
- CL renal ([2]; digoxin renal clearance, Mean ± SD): 1.82 ± 0.37 mL/min/kg
- CL renal ([2]; digoxin, Geo. Mean): 1.79 mL/min/kg
- Ae, urinary digoxin, Mean ± SD ([2]; percentage of dose excreted unchanged in urine 0-24 h): 41.3 ± 9.0%

Structure (SMILES): CN(C)c1cc(NC(=O)CNC(C)(C)C)c(O)c2c1C[C@H]1C[C@H]3[C@H](N(C)C)C(O)=C(C(N)=O)C(=O)[C@@]3(O)C(O)=C1C2=O [Tigecycline]
- clearance [3]: 3.7 mL/min/kg
- half-life [3]: 26.7 h
- AUC(0-t) ([3]; serum tigecycline, Geo. Mean): 2450 ng·h/mL
- AUC(0-t) ([3]; serum tigecycline, Mean ± SD): 2480 ± 379 ng·h/mL
- AUC ([3]; AUC, serum tigecycline, Mean ± SD): 2840 ± 732 ng·h/mL
- MRT ([3]; serum tigecycline, Geo. Mean): 29 h
- MRT ([3]; serum tigecycline, Mean ± SD): 30 ± 8.3 h
- Vd ([3]; serum tigecycline, Geo. Mean): 6.43 L/kg
- Vd ([3]; serum tigecycline, Mean ± SD): 6.53 ± 1.3 L/kg
- clearance ([3]; iv): 3.82 mL/min/kg
- effect on steady-state digoxin PD as measured by changes from baseline in ECG parameters ([4]; PR, QRS, QT, QTc intervals at 24 hours): did not produce significant changes
- QT interval, change from baseline ([4]; in vivo): not changed further

Structure (SMILES): CC[C@H]1OC(=O)[C@H](C)[C@@H](O[C@H]2C[C@@](C)(OC)[C@@H](O)[C@H](C)O2)[C@H](C)[C@@H](O[C@@H]2O[C@H](C)C[C@H](N(C)C)[C@H]2O)[C@](C)(OC)C[C@@H](C)C(=O)[C@H](C)[C@@H](O)[C@]1(C)O [Clarithromycin]
- effect on plasma levels of digoxin [5]: increase plasma levels of digoxin, sometimes to toxic levels
